Laboratory results taken from patent US10076533B2, “Acyclic nucleoside phosphonate diesters” (The Regents of the University of California, priority 2013, dated 2018).
Like-named read-outs stand apart in the source and are kept apart here.

Experiments:
[1] = Viability of PBMC by XTT reduction; settings: human
[2] = Cytotoxicity in 2.2.15 cells by neutral red uptake; settings: human
[3] = test system: Hepatitis B virus; assay: HBV replication in 2.2.15 cells, HBV DNA blot hybridization; settings: for EC50: Hepatitis B virus, 168 h; for Selectivity Index: hepatitis B virus, 2.2.15 cells
[4] = test system: HIV-192US727; assay: Anti-HIV assay in human PBMC, supernatant reverse transcriptase activity; settings: for Selectivity Index: HIV-192US727, human PBMC
[5] = test system: HPV-16; assay: HPV-16 origin replication in HEK 293 cells, qPCR; type: cell-based; settings: for Selectivity Index: HPV-16, HEK 293 cells
Experimental: (§1) An origin-containing plasmid was co-transfected with HPV-16 E1 and E2 protein expression vectors into HEK 293 cells. At 4 hr post-transfection, cells were treated with compound dilutions and the cells were incubated for 48 hr. Replication of the virus origin was detected with DpnI and exonuclease III to remove unreplicated input bacterial plasmid DNA. Remaining replicated DNA was quantified by qPCR. Toxicity was determined by trypan blue exclusion.

[6] = Toxicity in HEK 293 cells by trypan blue exclusion (HPV-16 example); type: cell-based; settings: human
Experimental: as §1

[7] = Effect of oral compounds on body weight in Balb-c mice; type: in vivo; settings: for body weight Day 0: before dosing; for lost % of body weight: day 6 versus day zero
Experimental: Compounds were administered at the indicated doses by oral gavage daily for 5 days. Weights measured before and on day 6 after 5 doses.

[8] = test system: MT-2 cells; assay: Cytotoxicity in MT-2 cells, flow cytometry cell counts and viability; type: cell-based, human; settings: 72 hrs, read-out: CC50, 50% Cytotoxic concentration MT2 cells T cell leukemia
Experimental: (§2) MT-2 cells were incubated with drug for 72 hrs and harvested. Flow count beads (Beckman Coulter, Miami, Fla.) were added to the cell suspension followed by propidium iodide staining and analysis using flow cytometer and the 50% cytotoxic concentration (CC50) was calculated from the cell counts and viability.

[9] = test system: HPV-11; assay: HPV-11 origin replication in HEK 293 cells, qPCR; type: cell-based; settings: for EC90: read-out: EC90 (concentration required to reduce viral replication by 90%)
Experimental: as §1, with “HPV-11” for “HPV-16”

[10] = test system: Human peripheral blood monocyte (PBMC); assay: Viability of PBMC by XTT reduction; settings: human PBMC, XTT reduction
[11] = Cytotoxicity in HFF cells in parallel to HSV-2 assay; settings: human, […]
[12] = Cytotoxicity in MT-2 cells, flow cytometry cell counts and viability; type: cell-based, human; settings: human; MT-2 cells, 72 hrs
Experimental: as §2

[13] = Toxicity in HEK 293 cells by trypan blue exclusion (HPV-11 example); type: cell-based; settings: human
Experimental: as §1, with “HPV-11” for “HPV-16”

[14] = test system: HIV-1LAI; assay: HIV antiviral assay in MT-2 cells, p24 reduction; settings: Human immunodeficiency virus 1, MT2, 96 h
[15] = Cytotoxicity in HFF cells in parallel to HSV-1 assay; settings: human, […]
[16] = African green monkey, uninfected COS7 cells
[17] = Cytotoxicity in HFF cells in parallel to cytomegalovirus assay; settings: human, […]
[18] = test system: MAD-1 strain of JC virus; assay: Antiviral effect in JC virus (MAD-1) infected COS7 cells, qPCR
[19] = human
[20] = test system: AD169 strain of human cytomegalovirus; assay: Antiviral effect in HFF cells infected with human cytomegalovirus (AD169)
[21] = test system: BK virus (Gardner strain); assay: Antiviral effect in HFF cells infected with BK virus (Gardner strain), qPCR
[22] = Human immunodeficiency virus 1, PBMC, 168 h
[23] = HPV-11 origin replication in HEK 293 cells, 48 hr, qPCR

Work on `CCCCCCCCCCCCCCCCCCOCCOP(=O)(CO[C@H](COC)Cn1cnc2c(N)ncnc21)Oc1ccccc1` (stereo partly drawn) [Compound 164, phenyl octadecyloxyethyl 9-(S)-[(3-methoxy-2-phosphonomethoxy)propyl]adenine] yielded a CC50 at 7 days [1] of 15 µM, a CC50 at 7 days [2] of over 100 µM and an EC50 [3] of 0.46 µM. The “Selectivity Index” value [3] was over 216, the “Selectivity Index” value [4] was over 37.5 and the EC50 [4, 22] was under 0.4 µM.
`CCCCCCCCCCCCCCCCCCOCCOP(=O)(CO[C@H](C)Cn1cnc2c(N)ncnc21)OCc1ccccc1` (stereo partly drawn) [Compound 74, benzyl octadecyloxyethyl 9-(R)-[(2-phosphonomethoxy)propyl]adenine] showed a CC50 at 7 days ([1]; PHA-stimulated human PBMCs) of 24.6 µM, a CC50 at 7 days [2] of 64 µM and an EC50 [3] of 6.5 µM. The “Selectivity Index” value [3] was 10, the “Selectivity Index” value [4] was over 4920 and the EC50 [4, 22] was under 0.005 µM.
For `CCCCCCCCCCCCCCCCCCOCCOP(=O)(COCCn1cnc2c(=O)[nH]c(N)nc21)Oc1ccccc1` (centres unmarked) [Compound 19, phenyl octadecyloxyethyl 9-(2-phosphonomethoxyethyl)guanine], the EC50 ([5]; HEK293, 48 h) was 5.27 µM, the “Selectivity Index” value [5] was over 1.9 and the CC50 at 48 h [6] was over 10 µM. It also gave a CC50 at 7 days [1] of 0.018 µM, a CC50 at 7 days [2] of over 100 µM and an EC50 [3] of 43 µM. The “Selectivity Index” value [3] was over 2.33, the “Selectivity Index” value [4] was over 9.0 and the EC50 [4, 22] was under 0.003 µM.
With `CCCCCCCCCCCCCCCCCCOCCOP(=O)(CO[C@H](COC)Cn1cnc2c(N)ncnc21)OCc1ccccc1` (stereo partly drawn) [Compound 146, benzyl octadecyloxyethyl 9-(S)-[(3-methoxy-2-phosphonomethoxy)propyl]adenine] the CC50 at 7 days ([1]; PHA-stimulated human PBMCs) was 12.5 µM, the CC50 at 7 days [2] was over 100 µM and the EC50 [3] was 33 µM. For the same compound, the “Selectivity Index” value [3] was over 3.03, the “Selectivity Index” value [4] was over 312 and the EC50 [4, 22] was under 0.04 µM.
In the case of `CCCCCCCCCCCCCCCCCCOCCOP(=O)(O)CO[C@H](CO)Cn1ccc(N)nc1=O` [ODE-CDV], the “body weight Day 6” value ([7]; 20 mg/kg/day oral gavage daily for 5 days) is reported as 16.96 ± 1.38 (6), the “body weight Day 0” value ([7]; 20 mg/kg/day oral gavage) is reported as 19.88 ± 0.55 (6) and the “lost % of body weight” value ([7]; 20 mg/kg/day) is reported as 14.7%.
`CCCCCCCCCCCCCCCCCCOCCOP(=O)(COCCn1cnc2c(=O)[nH]c(N)nc21)OCc1ccccc1` (single isomer, unassigned) [Compound 1a, benzyl octadecyloxyethyl 9-(2-phosphonomethoxyethyl)guanine] gave a CC50 [8] of under 0.01 µM and an EC90 [9, 23] of 1.06 µM.
Compound `CCCCCCCCCCCCCCCCCCOCCOP(=O)(CO[C@H](C)Cn1cnc2c(=O)[nH]c(N)nc21)OCc1ccccc1` (stereo partly drawn) [Compound 73, benzyl octadecyloxyethyl 9-(R)-[(2-phosphonomethoxy)propyl]guanine] has a CC50 at 7 days ([1]; PHA-stimulated human PBMCs) of 11.3 µM, a CC50 at 7 days [2] of 63 µM and an EC50 [3] of 34 µM. For the same compound, the “Selectivity Index” value [3] was 1.9, the “Selectivity Index” value [4] was over 2260 and the EC50 [4, 22] was under 0.005 µM.
Compound `CCCCCCCCCCCCCCCCOCCCOP(=O)(COCCn1cnc2c(=O)[nH]c(N)nc21)Oc1ccccc1` (centres unmarked) [Compound 25, phenyl hexadecyloxypropyl 9-(2-phosphonomethoxyethyl)guanine] has a CC50 [10] of 0.25 µM and an EC50 ([4]; HIV-192US727 infected human PBMC, 7 days, supernatant reverse transcriptase activity) of under 0.002 µM.
With `CCCCCCCCCCCCCCCCCCOCCOP(=O)(O)COCCn1cnc2c(=O)[nH]c(N)nc21` [ODE-PMEG, octadecyloxyethyl 9-[2-(phosphonomethoxy)ethyl]guanine] the “body weight Day 6” value ([7]; 4 mg/kg/day oral gavage daily for 5 days) was 15.5 ± 0.514 (3), the “body weight Day 0” value ([7]; 4 mg/kg/day oral gavage) was 19.17 ± 0.581 (3) and the “lost % of body weight” value ([7]; 4 mg/kg/day) was 19.1%.
Compound `CCCCCCCCCCCCCCCCCCOCCOP(=O)(CO[C@H](CO)Cn1ccc(=O)[nH]c1=O)OCc1ccccc1` (stereo partly drawn) [Compound 221, benzyl octadecyloxyethyl 9-(S)-[3-hydroxy-2-(phosphonomethoxy)propyl]uracil] has a CC50 at 3 days [11] of over 10 µM.
With `CCCCCCCCCCCCCCCCCCOCCOP(=O)(COCCn1cnc2c(N)ncnc21)OCc1ccccc1` (centres unmarked) [Compound 2, benzyl octadecyloxyethyl 9-(2-phosphonomethoxyethyl)adenine] the CC50 at 72 h [12] was under 0.01 µM, the CC50 ([8]; Homo sapiens, MT2) was under 0.01 µM and the EC50 ([9]; HEK293, HPV-11 origin replication in HEK 293 cells, 48 hr, qPCR) was 0.27 µM. The “Selectivity Index” value ([9]; HPV-11, HEK 293 cells) was over 130, the CC50 at 48 h [13] was over 100 µM and the EC50 ([5]; HEK293, HPV-16 origin replication in HEK 293 cells, 48 hr, qPCR, read-out: EC50) was 0.99 µM. The “Selectivity Index” value [5] was over 10.1, the CC50 at 48 h [6] was over 10 µM and the CC50 at 7 days ([1]; PHA-stimulated human PBMCs) was 11 µM. For the same compound, the EC50 [14] was under 0.01 nM, the CC50 at 7 days [2] was over 100 µM and the CC50 at 3 days [15] was 16.6 µM. For the same compound, the CC50 at 7 days [16] was 10.6 µM, the EC50 [3] was 0.88 µM and the “Selectivity Index” value [3] was over 113. The CC50 at 14 days [17] was 18.3 µM, the EC50 ([18]; JC polyomavirus, COS-7, 168 h) was over 4 µM and the “Selectivity Index” value ([18]; JC virus (MAD-1), COS7 cells) was under 2.7. For the same compound, the CC50 at 14 days [19] was 7.14 µM, the “Selectivity Index” value [4] was over 1100 and the EC50 [4, 22] was under 0.01 µM. The EC50 ([20]; Human betaherpesvirus 5, AD169, HFF, 336 h) was 0.11 µM, the “Selectivity Index” value ([20]; human cytomegalovirus (AD169), HFF cells) was 166 and the “Selectivity Index” value ([21]; BK virus (Gardner strain), HFF cells) was over 238. It also gave an EC50 ([21]; Betapolyomavirus hominis, HFF, 336 h) of under 0.03 µM.
`CCCCCCCCCCCCCCCCCCOCCOP(=O)(COCCn1cnc2c(=O)[nH]c(N)nc21)OCc1ccccc1` (single isomer, unassigned) [Compound 1b, benzyl octadecyloxyethyl 9-(2-phosphonomethoxyethyl)guanine] showed a CC50 [8] of under 0.01 µM and an EC90 [9, 23] of 1.16 µM.
